Test results taken from PubChem BioAssay AID1963435 (Molecular Pharmacology Branch, DTP, NCI, 2024).

Test system: PANC-1 complex spheroid growth, percent test/control
Test: Anticancer human tumor PANC-1 cell line growth inhibition [Asc];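 further: spheroids exposed to agents for 7 days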;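 on viability, T/C: percent viability relative to DMSO vehicle wells taken as 100%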
Conditions: for IC50: curve of first compound; for viability, T/C: stronger effect = lower value
Protocol: Multicellular complex tumor spheroid response to apoptosis pathway targeting inhibitors Alrizomadlin, Pelcitoclax, and Dasminapant in combination with a variety of drugs and investigational agents in selected tumor cell lines
The MDM2 inhibitor alrizomadlin, the Bcl-2/Bcl-xL inhibitor pelcitoclax, and the IAPs inhibitor dasminapant were evaluated both individually and in combination with standard of care and investigational anticancer small molecules within a complex spheroid model of solid tumors. . Complex spheroids include a stromal component modeled by human endothelial cells (HUVEC) and fibroblasts modeled by human mesenchymal stem cells (MSCs). The concentration ranges selected for each drug and investigational agent were based upon clinically achievable concentrations if the clinical Cmax of the agent was known.
Compounds. The drugs and investigational agents: alrizomadlin (APG-115; NSC831270), pelcitoclax (APG-1252; NSC835773), dasminapant (APG-1387;NSC834197), TAK-243 (NSC785004), copanlisib (NSC809693), olaparib (NSC753686), talazoparib (NSC767125), cobimetinib (NSC 768068), eltanexor (KPT-8602, NSC 794443), abemaciclib (NSC 768073), sotorasib (NSC818433), adagrasib (NSC 831453), MRTX-1133 (NSC 836407), Iadademestat (ORY1001, NSC 806812), and RMC-4630 (NSC839698), were obtained from the NCI Developmental Therapeutics Program Chemical Repository. The FDA-approved anticancer drug set is available from the Developmental Therapeutics Program at https://dtp.cancer.gov/organization/dscb/obtaining/available plates.htm. […] The stock solutions were prepared in dimethyl sulfoxide (DMSO, Sigma-Aldrich, St. Louis, MO, cat. D2650) at 800-fold the tested concentration and stored at -70 degrees C prior to their use. All drugs and investigational agents were tested over a range starting from a high concentration at or near the clinical Cmax and decreasing in half-log increments. If the clinical Cmax for an agent had not been determined, the highest concentration tested was 10 microM.
The patient-derived cancer (PDC) cell lines include five colon adenocarcinomas: 186277-243-T-J2-PDC, 616215-338-R-J1-PDC, 439559-082-T-J2-PDC, 463943-066-T-J2-PDC, and 519858-162-T-J1-PDC; three pancreatic carcinomas: 323965-272-R-J2-PDC, 521955-158-R6-J3-PDC, and 521955-158-R2-J5-PDC; two uterine sarcomas: 327498-152-R-J2-PDC and 993429-296-R-J1-PDC; two rhabdomyosarcomas: 755483-174-R-J1-PDC and 772245-204-R-J1-PDC; two soft tissue sarcomas: 126254-015-R-J1-PDC and 494315-158-R-J1-PDC; two malignant fibrous histiocytomas: 317291-083-R-J1-PDC and 596521-263-R-J1-PDC; two breast carcinomas: 171881-019-R-J1-PDC and 885512-296-R-J2-PDC; and one ovarian carcinoma: 6556581-035-R-J-PDC were obtained from the NCI PDMR, (https://pdmr.cancer.gov). The established cell lines HSSY-2 synovial sarcoma (RRID:CVCL 8719), SYO-1 synovial sarcoma (RRID:CVCL_7146), MPNST malignant peripheral neural sheath tumor were obtained from the Sloan Kettering Institute. The following established cell lines were purchased from the American Type Culture Collection (ATCC, Manassas, VA), Sor the received from the NCI repository:, PANC-1 pancreatic carcinoma (CRL-1469, RRID:CVCL_0480), OVCAR-5 ovarian carcinoma (RRID:CVCL_1628), OVCAR-8 ovarian carcinoma (RRID:CVCL_1629), , MCF-7 breast carcinoma (CRL-12584, RRID:CVCL_0031), MDA-MB-231 breast carcinoma (CRL-12532, RRID:CVCL_0062), NCI-H1876 small cell lung carcinoma (CRL-5902, RRID:CVCL_1503), NCI-H510A small cell lung carcinoma (HTB-184, RRID:CVCL_1565), NCI-H1417 (CRL-5869, RRID:CVCL_1469), and NCI-H196 small cell lung carcinoma (CRL-5823, RRID:CVCL_1509). Dr. Peter Houghton (Greehey Children's Cancer Research Institute, University of Texas Health Science Center, San Antonio, TX) provided Rh-18 rhabdomyosarcoma (RRID:CVCL_1659). Pooled donor human umbilical vein endothelial cells (HUVEC, Lonza, cat. CC-2519) and human mesenchymal stem cells (hMSC, Lonza, cat. PT-2501) were purchased from Lonza (Walkersville, MD).
Cell Culture. […]

Compound `NC(=O)C(=Cn1cnc(-c2cc(C(F)(F)F)cc(C(F)(F)F)c2)n1)c1cncnc1` + CCN1C(C(=O)NC23CCC(C(=O)O)(CC2)CC3)C(c2cccc(Cl)c2F)C2(C(=O)Nc3cc(Cl)ccc32)C12CCCCC2 has an IC50 (second compound 0.00949 µM) of over 300 nM, an IC50 (second compound 0.03 µM) of over 300 nM and an IC50 (second compound 0.0949 µM) of over 300 nM. For the same compound, the IC50 (second compound 0.3 µM) was over 300 nM, the IC50 (second compound 0.949 µM) was over 300 nM and the IC50 (second compound 3 µM) was over 300 nM. For the same compound, the viability, T/C (second compound 0.00949 µM, first compound 0.000949 µM) was 101%, the viability, T/C (second compound 0.00949 µM, first compound 0.003 µM) was 90.1% and the viability, T/C (second compound 0.00949 µM, first compound 0.00949 µM) was 90%. It also gave a viability, T/C (second compound 0.00949 µM, first compound 0.03 µM) of 104%, a viability, T/C (second compound 0.00949 µM, first compound 0.0949 µM) of 114% and a viability, T/C (second compound 0.00949 µM, first compound 0.3 µM) of 92.2%. The viability, T/C (second compound 0.03 µM, first compound 0.000949 µM) was 95.6%, the viability, T/C (second compound 0.03 µM, first compound 0.003 µM) was 95.5% and the viability, T/C (second compound 0.03 µM, first compound 0.00949 µM) was 98.6%. For the same compound, the viability, T/C (second compound 0.03 µM, first compound 0.03 µM) was 91.3%, the viability, T/C (second compound 0.03 µM, first compound 0.0949 µM) was 115% and the viability, T/C (second compound 0.03 µM, first compound 0.3 µM) was 104%. The viability, T/C (second compound 0.0949 µM, first compound 0.000949 µM) was 89.6%, the viability, T/C (second compound 0.0949 µM, first compound 0.003 µM) was 101% and the viability, T/C (second compound 0.0949 µM, first compound 0.00949 µM) was 90.1%. For the same compound, the viability, T/C (second compound 0.0949 µM, first compound 0.03 µM) was 92.4%, the viability, T/C (second compound 0.0949 µM, first compound 0.0949 µM) was 117% and the viability, T/C (second compound 0.0949 µM, first compound 0.3 µM) was 99.5%. It also gave a viability, T/C (second compound 0.3 µM, first compound 0.000949 µM) of 100%, a viability, T/C (second compound 0.3 µM, first compound 0.003 µM) of 89.6% and a viability, T/C (second compound 0.3 µM, first compound 0.00949 µM) of 89.1%. For the same compound, the viability, T/C (second compound 0.3 µM, first compound 0.03 µM) was 103%, the viability, T/C (second compound 0.3 µM, first compound 0.0949 µM) was 117% and the viability, T/C (second compound 0.3 µM, first compound 0.3 µM) was 93.8%. For the same compound, the viability, T/C (second compound 0.949 µM, first compound 0.000949 µM) was 97.5%, the viability, T/C (second compound 0.949 µM, first compound 0.003 µM) was 100% and the viability, T/C (second compound 0.949 µM, first compound 0.00949 µM) was 105%. For the same compound, the viability, T/C (second compound 0.949 µM, first compound 0.03 µM) was 99.3%, the viability, T/C (second compound 0.949 µM, first compound 0.0949 µM) was 125% and the viability, T/C (second compound 0.949 µM, first compound 0.3 µM) was 97.7%. For the same compound, the viability, T/C (second compound 3 µM, first compound 0.000949 µM) was 120%, the viability, T/C (second compound 3 µM, first compound 0.003 µM) was 107% and the viability, T/C (second compound 3 µM, first compound 0.00949 µM) was 113%. The viability, T/C (second compound 3 µM, first compound 0.03 µM) was 112%, the viability, T/C (second compound 3 µM, first compound 0.0949 µM) was 121% and the viability, T/C (second compound 3 µM, first compound 0.3 µM) was 96.6%.

With `NC1CCC(NC2CC2c2ccccc2)CC1` (centres undefined) + CCN1C(C(=O)NC23CCC(C(=O)O)(CC2)CC3)C(c2cccc(Cl)c2F)C2(C(=O)Nc3cc(Cl)ccc32)C12CCCCC2 the IC50 (second compound 0.00949 µM) was over 100 nM, the IC50 (second compound 0.03 µM) was over 100 nM and the IC50 (second compound 0.0949 µM) was over 100 nM. It also gave an IC50 (second compound 0.3 µM) of over 100 nM, an IC50 (second compound 0.949 µM) of over 100 nM and an IC50 (second compound 3 µM) of over 100 nM. It also gave a viability, T/C (second compound 0.00949 µM, first compound 0.000316 µM) of 97.6%, a viability, T/C (second compound 0.00949 µM, first compound 0.001 µM) of 89% and a viability, T/C (second compound 0.00949 µM, first compound 0.00316 µM) of 97.2%. It also gave a viability, T/C (second compound 0.00949 µM, first compound 0.01 µM) of 85.9%, a viability, T/C (second compound 0.00949 µM, first compound 0.0316 µM) of 82% and a viability, T/C (second compound 0.00949 µM, first compound 0.1 µM) of 104%. The viability, T/C (second compound 0.03 µM, first compound 0.000316 µM) was 84.6%, the viability, T/C (second compound 0.03 µM, first compound 0.001 µM) was 90.1% and the viability, T/C (second compound 0.03 µM, first compound 0.00316 µM) was 103%. It also gave a viability, T/C (second compound 0.03 µM, first compound 0.01 µM) of 87%, a viability, T/C (second compound 0.03 µM, first compound 0.0316 µM) of 91.2% and a viability, T/C (second compound 0.03 µM, first compound 0.1 µM) of 90.1%. For the same compound, the viability, T/C (second compound 0.0949 µM, first compound 0.000316 µM) was 99.7%, the viability, T/C (second compound 0.0949 µM, first compound 0.001 µM) was 94.7% and the viability, T/C (second compound 0.0949 µM, first compound 0.00316 µM) was 93.5%. It also gave a viability, T/C (second compound 0.0949 µM, first compound 0.01 µM) of 95.5%, a viability, T/C (second compound 0.0949 µM, first compound 0.0316 µM) of 97.7% and a viability, T/C (second compound 0.0949 µM, first compound 0.1 µM) of 95.4%. It also gave a viability, T/C (second compound 0.3 µM, first compound 0.000316 µM) of 96.7%, a viability, T/C (second compound 0.3 µM, first compound 0.001 µM) of 101% and a viability, T/C (second compound 0.3 µM, first compound 0.00316 µM) of 102%. The viability, T/C (second compound 0.3 µM, first compound 0.01 µM) was 98.2%, the viability, T/C (second compound 0.3 µM, first compound 0.0316 µM) was 102% and the viability, T/C (second compound 0.3 µM, first compound 0.1 µM) was 91%. The viability, T/C (second compound 0.949 µM, first compound 0.000316 µM) was 109%, the viability, T/C (second compound 0.949 µM, first compound 0.001 µM) was 115% and the viability, T/C (second compound 0.949 µM, first compound 0.00316 µM) was 104%. It also gave a viability, T/C (second compound 0.949 µM, first compound 0.01 µM) of 107%, a viability, T/C (second compound 0.949 µM, first compound 0.0316 µM) of 97.2% and a viability, T/C (second compound 0.949 µM, first compound 0.1 µM) of 89.2%. The viability, T/C (second compound 3 µM, first compound 0.000316 µM) was 109%, the viability, T/C (second compound 3 µM, first compound 0.001 µM) was 112% and the viability, T/C (second compound 3 µM, first compound 0.00316 µM) was 101%. For the same compound, the viability, T/C (second compound 3 µM, first compound 0.01 µM) was 110%, the viability, T/C (second compound 3 µM, first compound 0.0316 µM) was 95.6% and the viability, T/C (second compound 3 µM, first compound 0.1 µM) was 110%.
